Values joined by “and” are separate entries in the source; they are usually repeats but may differ in a detail not shown here. Equal values may be shown once.
Target: JNK1 (Homo sapiens, UniProt P45983)
Assay: DELFIA kinase assay, JNK1
Type: biochemical
Details: DELFIA, biotinylated GST-ATF2 substrate, 10 minute pre-incubation, final ATP 7 uM
How it was run: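 Enzyme (2 nM JNK1) was preincubated 10 min with 0–100 μM compound in HEPES pH 7.3 with 5% DMSO, then reacted 30 min at room temperature with biotinylated GST-ATF2 (6 ug/mL). Final ATP was 7 uM for JNK1, 4 uM for JNK2 and 2 uM for JNK3. Phospho-ATF2 was detected by DELFIA europium fluorescence (ex 340, em 615 nm).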

JNK1, sequence (P45983 whole entry, species assumed): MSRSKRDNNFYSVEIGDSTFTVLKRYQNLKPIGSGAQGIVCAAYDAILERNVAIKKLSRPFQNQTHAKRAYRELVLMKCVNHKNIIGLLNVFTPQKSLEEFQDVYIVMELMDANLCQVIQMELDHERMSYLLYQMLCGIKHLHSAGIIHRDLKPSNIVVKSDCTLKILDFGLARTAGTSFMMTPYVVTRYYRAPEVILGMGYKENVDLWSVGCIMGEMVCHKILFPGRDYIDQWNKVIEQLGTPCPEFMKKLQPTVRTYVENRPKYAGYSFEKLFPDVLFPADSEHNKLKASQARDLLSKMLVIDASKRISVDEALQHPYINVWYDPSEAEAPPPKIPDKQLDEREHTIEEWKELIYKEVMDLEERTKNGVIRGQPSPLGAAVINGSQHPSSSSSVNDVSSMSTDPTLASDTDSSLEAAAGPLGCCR

IC50	SMILES
102 to 959 nM	CC(C)NC(=O)c1cccc(C(=O)NCc2ccc(-c3cccc(C(F)(F)F)c3)nc2)n1 [Compound 183]
102 to 959 nM	CCOC(=O)N1CCC(NC(=O)c2cccc(C(=O)NCc3ccc(OC)c(OC)c3)n2)CC1 [Compound 74]
102 to 959 nM	CC(C)NC(=O)c1cccc(C(=O)NCc2ccc(N3CCCC3=O)cc2)n1 [Compound 120]
> 1000 nM and 1030 to 10000 nM	CS(=O)(=O)c1ccc(CNC(=O)c2cccc(-c3cc4ccccc4[nH]3)n2)cc1 [Compound 339]
> 1000 nM	CC(=O)NCCNC(=O)c1cccc(C(=O)NCc2ccc3nc(N)sc3c2)n1 [Compound 16]
> 1000 nM	Nc1nc2ccc(CNC(=O)c3cccc(C(=O)NCCN4CCOCC4)n3)cc2s1 [Compound 26]
102 to 959 nM	Cc1nc2ccc(CNC(=O)c3cccc(-n4cc(I)cn4)n3)cc2[nH]1 [Compound 290]
> 1000 nM and 1030 to 10000 nM	CC(C)CNc1cccc(C(=O)NCc2ccc(S(C)(=O)=O)cc2)n1 [Compound 337]
102 to 959 nM	CC(C)NC(=O)c1cccc(C(=O)NCc2cccc(Oc3ccccn3)c2)n1 [Compound 126]
> 1000 nM	Nc1nc2ccc(CNC(=O)c3cccc(C(=O)NCCO)n3)cc2s1 [Compound 15]
102 to 959 nM	CC(C)NC(=O)c1cccc(C(=O)NCc2cnn(-c3ccccn3)c2)n1 [Compound 156]
> 1000 nM	COC(=O)c1ccc(C2CCN(C(=O)c3cccc(C(=O)NCc4ccc5nc(N)sc5c4)n3)CC2O)cc1 (stereo not drawn) [Compound 33]
102 to 959 nM	CC(C)NC(=O)c1cccc(C(=O)NCc2cnn(-c3cnc4nccn4c3)c2)n1 [Compound 213]
4 to 97 nM	CC(C)NC(=O)c1cccc(C(=O)NCc2cnn(-c3cccc(S(C)(=O)=O)c3)c2)n1 [Compound 136]
102 to 959 nM	NC(=O)Nc1cccc(C(=O)NCc2cnn(-c3cccc(C(F)(F)F)c3)c2)n1 [Compound 356]
> 1000 nM	CS(=O)(=O)c1ccc(CNC(=O)c2cccc(C(=O)NC3CCN(c4ccc5ccccc5n4)CC3)n2)cc1 [Compound 276]
4 to 97 nM	CC(C)NC(=O)c1cccc(C(=O)NCc2cnn(-c3ccc4ncn(C)c4c3)c2)n1 [Compound 147]

IC50	SMILES
> 1000 nM	Nc1nc2ccc(CNC(=O)c3cccc(C(=O)N4CCCC(CO)C4)n3)cc2s1 (stereo not drawn) [Compound 37]
102 to 959 nM	C[C@H](CO)NC(=O)c1cccc(C(=O)NCc2ccc3nc(N)sc3c2)n1 [Compound 49]
> 1000 nM and 1030 to 10000 nM	CC(C)NC(=O)c1cccc(C(=O)NCC2CCN(C(=O)OC(C)(C)C)C2)n1 (stereo not drawn) [Compound 95]
102 to 959 nM	Nc1nc2ccc(CNC(=O)c3cccc(C(=O)N[C@H](CO)Cc4ccccc4)n3)cc2s1 [Compound 23]
1030 to 10000 nM and > 1000 nM	O=C(NCc1cnn(-c2cccc(C(F)(F)F)c2)c1)c1cccc(-c2cc3ccccc3[nH]2)n1 [Compound 347]
> 1000 nM	CC(O)CNC(=O)c1cccc(C(=O)NCc2ccc3nc(N)sc3c2)n1 (stereo not drawn) [Compound 19]
102 to 959 nM	CC(C)NC(=O)c1cccc(C(=O)NCc2cnn(C(C)C)c2)n1 [Compound 117]
4 to 97 nM	CC(C)NC(=O)c1cccc(C(=O)NCc2nc3ccccc3s2)n1 [Compound 85]
102 to 959 nM	CC(C)NC(=O)c1cccc(C(=O)NCc2ccc(-c3cccc(C#N)c3)nc2)n1 [Compound 178]
4 to 97 nM	CCC(C)NC(=O)c1cccc(C(=O)NCc2ccc3nc(N)sc3c2)n1 (stereo not drawn) [Compound 7]
102 to 959 nM	CNC(=S)N1CCC(NC(=O)c2cccc(C(=O)NCc3ccc(S(C)(=O)=O)cc3)n2)CC1 [Compound 57]
> 1000 nM	CC(C)[C@H](CO)NC(=O)c1cccc(C(=O)NCc2ccc3nc(N)sc3c2)n1 [Compound 59]
> 1000 nM	CNC(=O)c1cccc(C(=O)NCc2ccc3nc(N)sc3c2)n1 [Compound 47]
> 1000 nM and 1030 to 10000 nM	C[C@@H](CO)NC(=O)c1cc(-c2cccs2)cc(C(=O)NCc2ccc(S(C)(=O)=O)cc2)n1 [Compound 416]
> 1000 nM	CCNC(=O)c1cccc(C(=O)NC2CCN(C(=O)OCC)CC2)n1 [Compound 39]
102 to 959 nM	CC(C)NC(=O)c1cccc(C(=O)NCc2ccc(Cl)nc2)n1 [Compound 99]

From patent US8278337B2, “Substituted pyridines that are JNK inhibitors” (Merck Sharp & Dohme, priority 2006, dated 2012)
